# Key:
# rodents = conditions: in vivo
# benign thyroid diseases = assay: I-131 therapy of benign thyroid diseases, retrospective analysis; type: in vivo; conditions: 127 patients
# Experimental: A retrospective analysis was carried out for patients with benign thyroid conditions who underwent single or double I-131 therapy for benign thyroid disease at our department between January 2009 and December 2021. The thyroid function status of the patients was also documented prior to discharge.
smiles,measurement,setting,value
"CC(C)c1cccc(C(C)C)c1O [Propofol, propofol]",effect on glucose metabolism,rodents,decreased cerebral glucose metabolism
FC(F)OC(Cl)C(F)(F)F (stereo not drawn) [isoflurane],effect on glucose metabolism,rodents,induced hypoglycaemia
FCOC(C(F)(F)F)C(F)(F)F [sevoflurane],effect on glucose metabolism,rodents,induced hypoglycaemia
"CCCC(C)C1(CC)C(=O)NC(=O)NC1=O (stereo not drawn) [Pentobarbital, pentobarbital]",effect on glucose metabolism,rodents,does not alter the blood glucose metabolism
same,safety margin for rodent anaesthesia,rodents,lower safety margin
[131IH] [RAI],patients who required retreatment as they remained hyperthyroid,"benign thyroid diseases; after single RAI therapy, n = 33",26%
same,patients who responded to the single RAI therapy (euthyroid or hypothyroid),"benign thyroid diseases; empirical dose 10 mCi to 40 mCi, n = 94",Seventy-four per cent
same,patients euthyroid on discharge,"benign thyroid diseases; single or double I-131 therapy, n = 40",31%
same,patients hypothyroid on discharge,"benign thyroid diseases; single or double I-131 therapy, n = 83",66%

# Reference: paper PMC12376232 (Journal of the Colleges of Medicine of South Africa, 2023)
